Data as given in a melting point compilation (Tetko et al.; mined from patent text by program, amines drawn as free bases though some values may be those of a salt).

Compound	melting point [°C]
CC(C)(C)n1nc(-c2ccccc2)c(C(N)=O)c1N	177 to 178
CCCc1cccc2nc3c(=O)[nH][nH]c(=O)c3c(O)c12	> 400
Cc1onc(-c2ccccc2)c1-c1[nH]c2ccccc2c1CCC(=O)O	170 to 172
CCCCC1(N(C)C)CCC(c2[nH]c3ccc(C#N)cc3c2C)CC1 (centres undefined)	162 to 166
O=C(NCc1ccccc1)[C@@H]1CCCCN1	103 to 104
Cc1sc(N)nc1-c1ccc(CCN2CCN(c3cccc4ccccc34)CC2)cc1	160 to 165
O=C(CCCCl)c1cc2c3c(c1)CCN3C(=O)CC2	123 to 124
Cc1nc2ccccc2n1Cc1ccc(C(=O)O)cc1	300
Nc1ncnc2c1c(-c1ccc(Oc3ccccc3)cc1)c(Br)n2C1CCCC1	162
O=C(O)c1cccc(-c2cccc3c2CCN(Cc2cccc(C(F)(F)F)c2)C3)c1	230 to 231
N=C(NCCCCC1CCN(CC(O)CO)CC1)NC(=O)c1nc(Cl)c(N)nc1N (centres undefined)	188 to 191
COc1ccc(CCNC(=O)C(=O)NCCCCCCN)cc1OC1CCCC1	105 to 110
C#CCOC(=O)c1ccc(Br)s1	65 to 68
CN(C)CCOC(=O)C(=O)c1ccc(OCCOc2ccc3ccccc3c2)cc1	93 to 94
COC(=O)C1(C)CC(C(=O)Nc2ccc(Cl)cc2)=NN1c1ccc(Cl)cc1 (centres undefined)	138 to 140
Nc1snc2nc(N3CCCC3)sc12	262 to 264
CC(=O)Oc1ccc(C2(c3ccc(OC(C)=O)cc3)C(Cl)(Cl)C23CCCCC3)cc1	162 to 163
Cc1ccc(-c2nc3c(o2)C(=O)c2ccccc2C3=O)cc1	> 260
CCN(CC)CCOC(=O)c1cc2cc(Br)ccc2nn1	90 to 93
Clc1cccc(C(c2ccc3[nH]cnc3c2)n2ccnc2)c1 (centres undefined)	108
CCOC(=O)N1C(=O)NC(C)=C(C(=O)OC)C1c1cccc(Cl)c1Cl (centres undefined)	159 to 160
CCC(=O)c1cc(Cl)c(Cl)c2c1OCC(CO)O2 (centres undefined)	121 to 123
CNc1nc(Cl)c(SC)c(N2CCN(c3ccccc3)CC2)n1	163 to 164
O=C1c2ccccc2C(=O)N1OS(=O)(=O)c1ccccc1	186
CC(C)=CCN1c2ccccc2NC(=O)C1(C)C	146 to 147

Compound	melting point [°C]
O=c1[nH]c2cc(Cl)ccc2c(O)c1-c1cccc(Br)c1	358
Cc1ccc(-n2c(-c3ccc(S(C)(=O)=O)cc3)nc(O)c(C#N)c2=O)cc1C	> 285
CC[C@@]1(CC(=O)NCc2ccccc2)CCCN2CCc3c([nH]c4ccccc34)[C@@H]21	179 to 180
COC(=O)CSC(c1ccccc1OC)c1ccccc1OC	65 to 67
CC(=Cc1ccsc1)N(O)C(N)=O	165 to 167
Nc1ccc(Oc2ccc3ccc(Oc4ccc(N)c(O)c4)cc3c2)cc1O	201 to 210
C=CCSc1sc(-c2cc[nH]n2)c2c1C(=O)CC(C)(C)C2	164 to 167
CCCOc1cccc(-c2ccnc(Nc3cc(OC)c(OC)c(OC)c3)n2)c1	107
CCCC1(C(=O)N(C)Cc2ccccc2)c2ccccc2-c2ccccc21	73 to 74
Cc1nc(-c2cc3cc(OCCNC[C@H](O)c4cccc(Cl)c4)ccc3o2)no1	88 to 92
C[C@]12CCC(=O)N[C@@H]1CCc1cc(Sc3cccc(F)c3)ccc12	154 to 156
Cc1ccc(COC(=O)C(=O)OCc2ccc(C)cc2)cc1	100
O=C(Nc1ccc2ccc(Cl)nc2n1)C1CC1	250
Cn1c2ccc(Cl)cc2c2cc(C(=O)N3CCOCC3)sc21	178 to 182
CC(CO)NC(=O)COc1ccc(CCNS(=O)(=O)c2ccccc2)cc1 (centres undefined)	90 to 91
COc1cc(/C=C2/C(=O)OC[C@H]2Cc2cc(OC)c(OCc3ccc([N+](=O)[O-])cc3)c(OCc3ccc([N+](=O)[O-])cc3)c2)cc(OC)c1OC	171 to 172
O=[N+]([O-])c1ccc(Oc2ccc([N+](=O)[O-])cc2-c2ccc(C(F)(F)F)cc2C(F)(F)F)c(-c2ccc(C(F)(F)F)cc2C(F)(F)F)c1	72 to 73
CCCCNc1cc(CN(Cc2ccccc2)C(=O)OCC)cc(S(N)(=O)=O)c1Oc1ccccc1	82 to 83
CC(=O)NN1C(=O)c2cc3ccc4c(c3c(-c3ccc5c(c3)OCO5)c2C1=O)OCO4	281 to 283
Cn1c(=O)ccc2cc(CBr)ccc21	99 to 100
O=C1N=NC(=O)N1c1ccccc1	102 to 107
Nc1ccn(C2CN3CCC2CC3)n1 (centres undefined)	112 to 115
COc1ccc(OCC(O)CN2CCN(C(N)=O)CC2)cc1 (centres undefined)	192 to 195
COC(=O)C1=C(C)NC(C)=C(C(=O)OC)C1c1cc(Br)ccc1OCC(=O)NCCO[N+](=O)[O-]	166 to 167
COc1cc(OC)nc(NC(=O)NS(=O)(=O)c2ccccc2C(=O)O)n1	155 to 157

Next, values leading:

melting point [°C]	Compound
105	CCCCCCCc1cnc(-c2ccc(OC(=O)c3cc(N)c(O[C@H](C)CCCCCC)cc3[N+](=O)[O-])cc2)nc1
195 to 197	O=C(Nc1cccc(Cl)c1)c1nc(-c2ccccc2)c2ccccc2c1O
82 to 85	C[C@H](NP(=O)(Cc1ccccc1)Cc1ccccc1)C(=O)N1CCC[C@H]1C(=O)N[C@H](C)C(=O)OCc1ccccc1
91.5 to 96	CNC(Cc1ccccc1NC(=O)C(C)(C)C)c1cccnc1 (centres undefined)
170 to 171	Cc1ccc2ccc3c(c2c1)CC(=O)O3
204	CS(=O)(=O)c1c(F)cc(C2=C(c3ccccc3)C(=O)OC2)cc1F
214 to 217	CN1CC(=O)Nc2cccc(I)c2C1=O
66 to 67	CCc1cc(OCc2ccccc2)cc(C(=O)OC)c1C(=O)OC
208 to 210	CC(C)NC(=S)Nc1cccc(-c2ccnc3c(C(=O)c4cccs4)cnn23)c1
219 to 222	C=CCOC(=O)c1ccc(O)c(C23CC4CC(CC(C4)C2)C3)c1F
104 to 106	COC(=O)CCc1cc(C(=O)c2ccccc2Cl)c(NC(=O)CBr)s1
91 to 92	CCC(C(C)=CC(CNC(=O)c1cccnc1F)=NO)[N+](=O)[O-] (centres undefined)
178	C=CCS(=O)(=O)c1cccnc1S(N)(=O)=O
78 to 79	Cc1cccc(C(C)(C)O)c1N
84 to 86	Cc1cnc2c(c1)CCCC2S(=O)(=O)c1ccccc1 (centres undefined)
114	CCOP(=O)(OCC)c1cnn(-c2ccc(Cl)c(Cl)c2Cl)c1N
133 to 140	Nc1nc(Cl)cc(-c2ccco2)n1
53 to 55	COc1ccc(C(=O)c2cccc(OC)c2)cc1
109 to 110	Cc1cc(C)c2c(c1C)OC(C)(C)C2c1ccc(F)cc1 (centres undefined)
120 to 121	Cn1ccnc1Sc1ccc([N+](=O)[O-])cc1
147 to 148	O=C1C(=O)N(Cc2ccccc2F)c2ccc(S(=O)(=O)N3CC[C@H]3COc3ccccc3)cc21
176 to 178	CCOC(=O)c1cn(CCF)c2nc(S(=O)(=O)CC)c(F)cc2c1=O
179 to 181	CCOC(=O)c1cc(C=O)c2ccccn2c1=O
58 to 60	O=C1OC(CCc2ccccc2)(c2ccccc2)CC(O)=C1Sc1ccccc1 (centres undefined)
